# Laboratory results reported in EP4775568A1, “NOVEL COMPOUND AND USE THEREOF FOR TREATING PSORIASIS” (Gwangju Institute of Science and Technology, priority 2023, dated 2025).
# Molecular target: T1, CMKLR1 (Homo sapiens, UniProt Q99788)
# T1 construct: expressed in transfected cells; host or cells: CHO-K1 cells expressing Gα-16 (CHO-Ga16-CMKLR1)
# T1 sequence (Q99788 1-373): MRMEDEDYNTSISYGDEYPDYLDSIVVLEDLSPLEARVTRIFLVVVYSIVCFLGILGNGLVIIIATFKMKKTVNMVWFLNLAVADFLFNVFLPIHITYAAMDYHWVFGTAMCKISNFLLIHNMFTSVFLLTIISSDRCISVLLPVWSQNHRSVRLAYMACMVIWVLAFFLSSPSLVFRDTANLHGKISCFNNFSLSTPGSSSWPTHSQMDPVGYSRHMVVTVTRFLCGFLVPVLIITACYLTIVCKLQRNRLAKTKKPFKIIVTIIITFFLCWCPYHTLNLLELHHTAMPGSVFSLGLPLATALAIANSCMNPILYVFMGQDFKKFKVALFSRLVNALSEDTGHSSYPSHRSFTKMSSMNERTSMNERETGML
# Test: Calcium mobilization assay (CHO-Ga16-CMKLR1 cells, chemerin-9 induced signal)
# Type: cell-based
# Settings: for IC50: calcium signal induced by 2.5 nM chemerin-9
# Protocol: To establish a CMKLR1 calcium mobilization cell evaluation system, CHO-K1 cells expressing Gα-16 were transfected with pcDNA3.1-derived human CMKLR1-expressing plasmids using Lipofectamine 2000 (Invitrogen, Waltham, Massachusetts, USA). […] The established cell line (CHO-Ga16-CMKLR1) was cultured in F-12 medium (Invitrogen) supplemented with 10% (v/v) fetal bovine serum (FBS; Invitrogen), 0.5 mg/mL geneticin, 0.2 mg/mL hygromycin B (Clontech), and 1% (v/v) antibiotic-antimycotic solution (Invitrogen) under 5% CO2 at 37°C.
# 100 µL/well was added to a 96-well plate (Corning) and incubated for 24 h. The buffer solution was prepared by adding 1 M HEPES solution to Hanks' Balanced Salt Solution (HBSS) (Invitrogen) and adjusting the pH to 7.4 by dropwise addition of 1 M NaOH.
# The fluorescent dye solution was prepared using the buffer provided with the Calcium 5 Assay Kit (Molecular Devices). 40 µL/well of dye solution was added to each well and incubated at 37°C in a 5% CO2 atmosphere for 30 min. […] The final DMSO concentration was adjusted to 2%. 40 µL of each compound solution was added to the well and incubated for 30 min. […] Prism 5 software (GraphPad) was then used to obtain IC50 values for various compounds. IC50 values were derived based on concentration-response curves, and all experiments were repeated at least three times.
smiles,measurement,setting,value
"CC(CC(=O)O)c1ccc(OCc2ccc3c(-c4cc(C(F)(F)F)cc(C(F)(F)F)c4)nn(C4CCCC4)c3c2)cc1 (stereo not shown) [Compound 22, 3-(4-((3-(3,5-bis(trifluoromethyl)phenyl)-1-cyclopentyl-1H-indazol-6-yl)methoxy)phenyl)butanoic acid]",IC50,"Table 2, IC50 class",> 1 µM
"CCCn1nc(-c2ccccc2)c2ccc(COc3ccc(C(C)CC(=O)O)cc3)cc21 (stereo not shown) [Compound 79, 3-(4-((3-phenyl-1-propyl-1H-indazol-6-yl)methoxy)phenyl)butanoic acid]",inhibition at 10 µM,"read-out: CMKLR1 activity in CHO cells (% inhibition at 10 µM), 10 µM compound, relative to calcium signal induced by 2.5 nM chemerin-9",60%
"C[C@@H](CC(=O)O)c1ccc(OCc2ccc3c(-c4cc(Cl)c(O)c(Cl)c4)nn(C4CCCC4)c3c2)cc1 [Compound 44, (S)-3-(4-((1-cyclopentyl-3-(3,5-dichloro-4-hydroxyphenyl)-1H-indazol-6-yl)methoxy)phenyl)butanoic acid]",IC50,"Table 3, IC50 class",0.1 to 1 µM
"COc1ccc(-c2nn(C3CCCC3)c3cc(COc4ccc([C@H](C)CC(=O)O)cc4)ccc23)cc1 [Compound 57, (R)-3-(4-((1-cyclopentyl-3-(4-methoxyphenyl)-1H-indazol-6-yl)methoxy)phenyl)butanoic acid]",IC50,"Table 4, IC50 class",> 1 µM
